≈ marks a conversion by molar mass, not a printed value.
How the values were obtained:
E. coli JT 39 = experiment: MIC by standard microtitre method, alone and in admixture with ampicillin; format: cell-based; conditions: Escherichia coli, JT39; compound alone
Protocol: (§1) The MICs of ampicillin, 9-O-(N-glycyl)-2-amino- ethylclavulanic acid (GAECA) alone and in admixture against a number of bacteria were determined by a standard microtitre method. The results obtained were as follows: The MICs of ampicillin, 9-O-(N-alanyl)-2-amino- ethylclavulanic acid (AAECA) alone and in admixture against a number of bacteria were determined by a standard microtitre method.

Klebsiella aerog. E.70 = experiment: as above; format: cell-based; conditions: compound alone
Protocol: as §1

Proteus C 889 = experiment: as above; format: cell-based; conditions: compound alone
Protocol: as §1

Staph. aureus Russell = experiment: as above; format: cell-based; conditions: compound alone; for MIC: Staphylococcus aureus
Protocol: as §1

E.Col: E96 (R + strain) = experiment: Synergistic activity in mice infected intraperitoneally; format: in vivo; conditions: mice infected intraperitoneally with E.Col: E96 (R + strain); oral and sub-cutaneous route
Excerpt: The results obtained were as follows: • Synergistic activity in Mice infected intraperitoneally with E.Col: E96 (R + strain) [formula]

`C[C@H](N)C(=O)NCCOC/C=C1\O[C@@H]2CC(=O)N2[C@H]1C(=O)O` [AAECA, 9-0-(N-L-alanyl)-2-aminoethylclavulanic acid] was tested, and the MIC (E. coli JT 39) was 16 µg/mL (≈ 51.1 µM), the MIC (Klebsiella aerog. E.70) was 125 µg/mL (≈ 399 µM) and the MIC (Proteus C 889) was 250 µg/mL (≈ 798 µM). The MIC (Staph. aureus Russell) was 8 µg/mL (≈ 25.5 µM) and the “Synergistic activity in vivo” value (E.Col: E96 (R + strain)) was “good activity in vivo by both the oral and sub-cutaneous route”.
Work on `NCC(=O)NCCOC/C=C1\O[C@@H]2CC(=O)N2[C@H]1C(=O)O` [GAECA, 9-0-(N-Glycyl)-2-aminoethylclavulanic acid] yielded an MIC (E. coli JT 39) of 51.2 µg/mL (≈ 171 µM), an MIC (Klebsiella aerog. E.70) of 62.5 µg/mL (≈ 209 µM) and an MIC (Proteus C 889) of 250 µg/mL (≈ 835 µM). For the same compound, the MIC (Staph. aureus Russell) was 8 µg/mL (≈ 26.7 µM).
In the case of `CC1(C)S[C@@H]2[C@H](NC(=O)[C@H](N)c3ccccc3)C(=O)N2[C@H]1C(=O)O` [Ampicillin, ampicillin, reference compound], the MIC (E. coli JT 39) is reported as 2000 µg/mL (≈ 5720 µM), the MIC (Klebsiella aerog. E.70) is reported as 500 µg/mL (≈ 1430 µM) and the MIC (Proteus C 889) is reported as 2000 µg/mL (≈ 5720 µM). The “MIC (µg/ml) Proteus C 889” value (Proteus C 889) was 1000 µg/mL (≈ 2860 µM), the MIC (Staph. aureus Russell) was 250 µg/mL (≈ 715 µM) and the “MIC (µg/ml) Staph. aureus Russell” value (Staph. aureus Russell) was 500 µg/mL (≈ 1430 µM).
